“And” between values parts separate entries of the source, which are not always exact repeats. Identical values can stand only once. Like-named read-outs stand apart in the source and are kept apart here.
Assay: Plasma concentrations and TK parameters, 72-hour continuous intravenous infusion
Assay type: in vivo, Sprague-Dawley rats
Conditions: for concentration at 96 h / concentration at 24 h / concentration at 48 h / concentration at 72 h / concentration at 78 h / concentration at 84 h: Sprague-Dawley, rat, plasma, iv
Protocol: The safety and pharmacokinetics of PPTN (KB-1801) in rats receiving continuous intravenous injections of SBECD-containing solutions were analyzed. Three cohorts of six male and six female rats each were given continuous intravenous infusion of PPTN (KB-1801) at 10 mg/kg/day, 30 mg/kg/day or 100 mg/kg/day in a dosing solution containing PPTN at 0.25 mg/mL, 0.75 mg/mL or 2.5 mg/mL and SBECD at about 3.8%. Dosing volume was 40 mIkg/day. [table]

Molecule `O=C(O)c1cc(-c2ccc(C3CCNCC3)cc2)c2ccc(-c3ccc(C(F)(F)F)cc3)cc2c1` [KB-1801, 4-[4-(piperidin-4-yl)phenyl]-7-[4-(trifluoromethyl)phenyl]-2-naphthoic acid] has a concentration at 96 h (female, 30 mg/kg/day, female Sprague-Dawley rats, 72-hour intravenous infusion at 30 mg/kg/day, time 96 h, read-out: Plasma concentration, individual animal) of 81.6 ng/mL, a concentration at 24 h (female, 100 mg/kg/day, female Sprague-Dawley rats, 72-hour intravenous infusion at 100 mg/kg/day, time 24 h, read-out: Plasma concentration, Mean) of 7740 ng/mL and a concentration at 24 h (female, 100 mg/kg/day, female Sprague-Dawley rats, 72-hour intravenous infusion at 100 mg/kg/day, time 24 h, read-out: Plasma concentration, individual animal) of 8270 ng/mL. The concentration at 48 h (female, 100 mg/kg/day, female Sprague-Dawley rats, 72-hour intravenous infusion at 100 mg/kg/day, time 48 h, read-out: Plasma concentration, Mean) was 6720 ng/mL, the concentration at 48 h (female, 100 mg/kg/day, female Sprague-Dawley rats, 72-hour intravenous infusion at 100 mg/kg/day, time 48 h, read-out: Plasma concentration, individual animal) was 6070 ng/mL and the concentration at 72 h (female, 100 mg/kg/day, female Sprague-Dawley rats, 72-hour intravenous infusion at 100 mg/kg/day, time 72 h, read-out: Plasma concentration, Mean) was 6840 ng/mL. For the same molecule, the concentration at 72 h (female, 100 mg/kg/day, female Sprague-Dawley rats, 72-hour intravenous infusion at 100 mg/kg/day, time 72 h, read-out: Plasma concentration, individual animal) was 7110 ng/mL, the concentration at 78 h (female, 100 mg/kg/day, female Sprague-Dawley rats, 72-hour intravenous infusion at 100 mg/kg/day, time 78 h, read-out: Plasma concentration, Mean) was 1820 ng/mL and the concentration at 78 h (female, 100 mg/kg/day, female Sprague-Dawley rats, 72-hour intravenous infusion at 100 mg/kg/day, time 78 h, read-out: Plasma concentration, individual animal) was 1900 ng/mL. It also gave a concentration at 84 h (female, 100 mg/kg/day, female Sprague-Dawley rats, 72-hour intravenous infusion at 100 mg/kg/day, time 84 h, read-out: Plasma concentration, Mean) of 987 ng/mL, a concentration at 84 h (female, 100 mg/kg/day, female Sprague-Dawley rats, 72-hour intravenous infusion at 100 mg/kg/day, time 84 h, read-out: Plasma concentration, individual animal) of 841 ng/mL and a concentration at 96 h (female, 100 mg/kg/day, female Sprague-Dawley rats, 72-hour intravenous infusion at 100 mg/kg/day, time 96 h, read-out: Plasma concentration, Mean) of 281 ng/mL. For the same molecule, the concentration at 96 h (female, 100 mg/kg/day, female Sprague-Dawley rats, 72-hour intravenous infusion at 100 mg/kg/day, time 96 h, read-out: Plasma concentration, individual animal) was 288 ng/mL, the “Plasma concentration, individual animal” value (male Sprague-Dawley rats, 72-hour intravenous infusion at 10 mg/kg/day, time 24 h, 10 mg/kg/day) was 547.8 ng/mL and 952.8 ng/mL and the “Plasma concentration, individual animal” value (male Sprague-Dawley rats, 72-hour intravenous infusion at 10 mg/kg/day, time 48 h, 10 mg/kg/day) was 539.5 ng/mL and 752.7 ng/mL. The “Plasma concentration, individual animal” value (male Sprague-Dawley rats, 72-hour intravenous infusion at 10 mg/kg/day, time 72 h, 10 mg/kg/day) was 617.8 ng/mL and 545.9 ng/mL, the “Plasma concentration, individual animal” value (male Sprague-Dawley rats, 72-hour intravenous infusion at 10 mg/kg/day, time 78 h, 10 mg/kg/day) was 205.5 ng/mL and 170.5 ng/mL and the “Plasma concentration, individual animal” value (male Sprague-Dawley rats, 72-hour intravenous infusion at 10 mg/kg/day, time 84 h, 10 mg/kg/day) was 82.6 ng/mL and 128.1 ng/mL. For the same molecule, the “Plasma concentration, individual animal” value (male Sprague-Dawley rats, 72-hour intravenous infusion at 10 mg/kg/day, time 96 h, 10 mg/kg/day) was 60.2 ng/mL and 45.0 ng/mL, the “Plasma concentration, individual animal” value (male Sprague-Dawley rats, 72-hour intravenous infusion at 30 mg/kg/day, time 24 h, 30 mg/kg/day) was 1855.0 ng/mL and 2482.4 ng/mL and the “Plasma concentration, individual animal” value (male Sprague-Dawley rats, 72-hour intravenous infusion at 30 mg/kg/day, time 48 h, 30 mg/kg/day) was 2175.6 ng/mL and 2510.8 ng/mL. The “Plasma concentration, individual animal” value (male Sprague-Dawley rats, 72-hour intravenous infusion at 30 mg/kg/day, time 72 h, 30 mg/kg/day) was 1871.2 ng/mL and 2031.5 ng/mL, the “Plasma concentration, individual animal” value (male Sprague-Dawley rats, 72-hour intravenous infusion at 30 mg/kg/day, time 78 h, 30 mg/kg/day) was 690.2 ng/mL and 818.5 ng/mL and the “Plasma concentration, individual animal” value (male Sprague-Dawley rats, 72-hour intravenous infusion at 30 mg/kg/day, time 84 h, 30 mg/kg/day) was 273.1 ng/mL and 309.1 ng/mL. The “Plasma concentration, individual animal” value (male Sprague-Dawley rats, 72-hour intravenous infusion at 30 mg/kg/day, time 96 h, 30 mg/kg/day) was 164.1 ng/mL and 213.1 ng/mL, the “Plasma concentration, individual animal” value (male Sprague-Dawley rats, 72-hour intravenous infusion at 100 mg/kg, time 24 h, 100 mg/kg) was 7597.9 ng/mL and 10702.8 ng/mL and the “Plasma concentration, individual animal” value (male Sprague-Dawley rats, 72-hour intravenous infusion at 100 mg/kg, time 48 h, 100 mg/kg) was 6182.8 ng/mL and 7504.3 ng/mL. For the same molecule, the “Plasma concentration, individual animal” value (male Sprague-Dawley rats, 72-hour intravenous infusion at 100 mg/kg, time 72 h, 100 mg/kg) was 7768.2 ng/mL, the “Plasma concentration, individual animal” value (male Sprague-Dawley rats, 72-hour intravenous infusion at 100 mg/kg, time 78 h, 100 mg/kg) was 1893.5 ng/mL and 2808.6 ng/mL and the “Plasma concentration, individual animal” value (male Sprague-Dawley rats, 72-hour intravenous infusion at 100 mg/kg, time 84 h, 100 mg/kg) was 1818.2 ng/mL. For the same molecule, the “Plasma concentration, individual animal” value (male Sprague-Dawley rats, 72-hour intravenous infusion at 100 mg/kg, time 96 h, 100 mg/kg) was 333.5 ng/mL and 482.1 ng/mL, the concentration at 24 h (male, 10 mg/kg/day, male Sprague-Dawley rats, 72-hour intravenous infusion at 10 mg/kg/day, time 24 h, read-out: Plasma concentration, Mean) was 803 ng/mL and the concentration at 24 h (male, 10 mg/kg/day, male Sprague-Dawley rats, 72-hour intravenous infusion at 10 mg/kg/day, time 24 h, read-out: Plasma concentration, individual animal) was 908 ng/mL. For the same molecule, the concentration at 48 h (male, 10 mg/kg/day, male Sprague-Dawley rats, 72-hour intravenous infusion at 10 mg/kg/day, time 48 h, read-out: Plasma concentration, Mean) was 602 ng/mL, the concentration at 48 h (male, 10 mg/kg/day, male Sprague-Dawley rats, 72-hour intravenous infusion at 10 mg/kg/day, time 48 h, read-out: Plasma concentration, individual animal) was 515 ng/mL and the concentration at 72 h (male, 10 mg/kg/day, male Sprague-Dawley rats, 72-hour intravenous infusion at 10 mg/kg/day, time 72 h, read-out: Plasma concentration, Mean) was 594 ng/mL. For the same molecule, the concentration at 72 h (male, 10 mg/kg/day, male Sprague-Dawley rats, 72-hour intravenous infusion at 10 mg/kg/day, time 72 h, read-out: Plasma concentration, individual animal) was 618 ng/mL, the concentration at 78 h (male, 10 mg/kg/day, male Sprague-Dawley rats, 72-hour intravenous infusion at 10 mg/kg/day, time 78 h, read-out: Plasma concentration, Mean) was 208 ng/mL and the concentration at 78 h (male, 10 mg/kg/day, male Sprague-Dawley rats, 72-hour intravenous infusion at 10 mg/kg/day, time 78 h, read-out: Plasma concentration, individual animal) was 249 ng/mL. The concentration at 84 h (male, 10 mg/kg/day, male Sprague-Dawley rats, 72-hour intravenous infusion at 10 mg/kg/day, time 84 h, read-out: Plasma concentration, Mean) was 98.9 ng/mL, the concentration at 84 h (male, 10 mg/kg/day, male Sprague-Dawley rats, 72-hour intravenous infusion at 10 mg/kg/day, time 84 h, read-out: Plasma concentration, individual animal) was 86 ng/mL and the concentration at 96 h (male, 10 mg/kg/day, male Sprague-Dawley rats, 72-hour intravenous infusion at 10 mg/kg/day, time 96 h, read-out: Plasma concentration, Mean) was 55.1 ng/mL. It also gave a concentration at 96 h (male, 10 mg/kg/day, male Sprague-Dawley rats, 72-hour intravenous infusion at 10 mg/kg/day, time 96 h, read-out: Plasma concentration, individual animal) of 60 ng/mL, a concentration at 24 h (male, 30 mg/kg/day, male Sprague-Dawley rats, 72-hour intravenous infusion at 30 mg/kg/day, time 24 h, read-out: Plasma concentration, Mean) of 1950 ng/mL and a concentration at 24 h (male, 30 mg/kg/day, male Sprague-Dawley rats, 72-hour intravenous infusion at 30 mg/kg/day, time 24 h, read-out: Plasma concentration, individual animal) of 1520 ng/mL. The concentration at 48 h (male, 30 mg/kg/day, male Sprague-Dawley rats, 72-hour intravenous infusion at 30 mg/kg/day, time 48 h, read-out: Plasma concentration, Mean) was 2500 ng/mL, the concentration at 48 h (male, 30 mg/kg/day, male Sprague-Dawley rats, 72-hour intravenous infusion at 30 mg/kg/day, time 48 h, read-out: Plasma concentration, individual animal) was 2800 ng/mL and the concentration at 72 h (male, 30 mg/kg/day, male Sprague-Dawley rats, 72-hour intravenous infusion at 30 mg/kg/day, time 72 h, read-out: Plasma concentration, Mean) was 1670 ng/mL. The concentration at 72 h (male, 30 mg/kg/day, male Sprague-Dawley rats, 72-hour intravenous infusion at 30 mg/kg/day, time 72 h, read-out: Plasma concentration, individual animal) was 1110 ng/mL, the concentration at 78 h (male, 30 mg/kg/day, male Sprague-Dawley rats, 72-hour intravenous infusion at 30 mg/kg/day, time 78 h, read-out: Plasma concentration, Mean) was 736 ng/mL and the concentration at 78 h (male, 30 mg/kg/day, male Sprague-Dawley rats, 72-hour intravenous infusion at 30 mg/kg/day, time 78 h, read-out: Plasma concentration, individual animal) was 698 ng/mL. The concentration at 84 h (male, 30 mg/kg/day, male Sprague-Dawley rats, 72-hour intravenous infusion at 30 mg/kg/day, time 84 h, read-out: Plasma concentration, Mean) was 290 ng/mL, the concentration at 84 h (male, 30 mg/kg/day, male Sprague-Dawley rats, 72-hour intravenous infusion at 30 mg/kg/day, time 84 h, read-out: Plasma concentration, individual animal) was 289 ng/mL and the concentration at 96 h (male, 30 mg/kg/day, male Sprague-Dawley rats, 72-hour intravenous infusion at 30 mg/kg/day, time 96 h, read-out: Plasma concentration, Mean) was 172 ng/mL. The concentration at 96 h (male, 30 mg/kg/day, male Sprague-Dawley rats, 72-hour intravenous infusion at 30 mg/kg/day, time 96 h, read-out: Plasma concentration, individual animal) was 139 ng/mL, the concentration at 24 h (male, 100 mg/kg, male Sprague-Dawley rats, 72-hour intravenous infusion at 100 mg/kg, time 24 h, read-out: Plasma concentration, Mean) was 9550 ng/mL and the concentration at 24 h (male, 100 mg/kg, male Sprague-Dawley rats, 72-hour intravenous infusion at 100 mg/kg, time 24 h, read-out: Plasma concentration, individual animal) was 10300 ng/mL. For the same molecule, the concentration at 48 h (male, 100 mg/kg, male Sprague-Dawley rats, 72-hour intravenous infusion at 100 mg/kg, time 48 h, read-out: Plasma concentration, Mean) was 7030 ng/mL, the concentration at 48 h (male, 100 mg/kg, male Sprague-Dawley rats, 72-hour intravenous infusion at 100 mg/kg, time 48 h, read-out: Plasma concentration, individual animal) was 7400 ng/mL and the concentration at 72 h (male, 100 mg/kg, male Sprague-Dawley rats, 72-hour intravenous infusion at 100 mg/kg, time 72 h, read-out: Plasma concentration, Mean) was 9790 ng/mL. The concentration at 72 h (male, 100 mg/kg, male Sprague-Dawley rats, 72-hour intravenous infusion at 100 mg/kg, time 72 h, read-out: Plasma concentration, individual animal) was 11800 ng/mL, the concentration at 78 h (male, 100 mg/kg, male Sprague-Dawley rats, 72-hour intravenous infusion at 100 mg/kg, time 78 h, read-out: Plasma concentration, Mean) was 2640 ng/mL and the concentration at 78 h (male, 100 mg/kg, male Sprague-Dawley rats, 72-hour intravenous infusion at 100 mg/kg, time 78 h, read-out: Plasma concentration, individual animal) was 3220 ng/mL. For the same molecule, the concentration at 84 h (male, 100 mg/kg, male Sprague-Dawley rats, 72-hour intravenous infusion at 100 mg/kg, time 84 h, read-out: Plasma concentration, Mean) was 2230 ng/mL, the concentration at 84 h (male, 100 mg/kg, male Sprague-Dawley rats, 72-hour intravenous infusion at 100 mg/kg, time 84 h, read-out: Plasma concentration, individual animal) was 2650 ng/mL and the concentration at 96 h (male, 100 mg/kg, male Sprague-Dawley rats, 72-hour intravenous infusion at 100 mg/kg, time 96 h, read-out: Plasma concentration, Mean) was 471 ng/mL. For the same molecule, the concentration at 96 h (male, 100 mg/kg, male Sprague-Dawley rats, 72-hour intravenous infusion at 100 mg/kg, time 96 h, read-out: Plasma concentration, individual animal) was 598 ng/mL, the “Time for plasma PPTN concentrations to reach steady state” value (rats, continuous intravenous infusion) was at most 24 h and the “Plasma PPTN concentrations, relation to dose” value (rats, continuous intravenous infusion 10, 30, 100 mg/kg/day) was “linearly dose-related”.

— US20220202799A1, “PHARMACEUTICAL FORMULATIONS CONTAINING P2Y14 ANTAGONISTS” (priority 2019, published 2022)
